For assay [1], the system named is A3-YFP. Nature of the assay: A3-YFP receptor internalization (granularity analysis) in CHO A3-YFP cells.
Assay [2] deals with T1, human A3AR (Homo sapiens, UniProt P0DMS8).
T1 sequence (P0DMS8 1-318): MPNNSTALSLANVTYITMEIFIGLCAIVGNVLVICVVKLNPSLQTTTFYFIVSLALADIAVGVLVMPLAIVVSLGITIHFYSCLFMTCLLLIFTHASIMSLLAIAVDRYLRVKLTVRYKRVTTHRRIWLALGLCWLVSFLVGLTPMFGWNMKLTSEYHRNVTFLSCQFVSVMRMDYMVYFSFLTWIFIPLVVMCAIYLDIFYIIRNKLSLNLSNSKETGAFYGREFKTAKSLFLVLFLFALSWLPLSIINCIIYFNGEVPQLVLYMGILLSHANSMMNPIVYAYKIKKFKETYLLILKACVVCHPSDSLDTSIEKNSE
As to the kind of experiment: High-content fluorescent ligand (CA200645) competition binding assay in live CHO CRE-SPAP cells expressing the A3AR. The note with it: for remaining binding at 1000 µM: read-out: % of CA200645 binding (% DMSO control).

Assay [3] concerns the target T1, human A3AR. As to the kind of experiment: cell-based.
The target of assay [4] is T1, human A3AR. Nature of the assay: CRE-SPAP gene transcription assay (shift of NECA-mediated inhibition of forskolin-stimulated SPAP response).
Assay [5] concerns the target T2, human A1AR (Homo sapiens, UniProt P30542).
T2 sequence (P30542 1-326): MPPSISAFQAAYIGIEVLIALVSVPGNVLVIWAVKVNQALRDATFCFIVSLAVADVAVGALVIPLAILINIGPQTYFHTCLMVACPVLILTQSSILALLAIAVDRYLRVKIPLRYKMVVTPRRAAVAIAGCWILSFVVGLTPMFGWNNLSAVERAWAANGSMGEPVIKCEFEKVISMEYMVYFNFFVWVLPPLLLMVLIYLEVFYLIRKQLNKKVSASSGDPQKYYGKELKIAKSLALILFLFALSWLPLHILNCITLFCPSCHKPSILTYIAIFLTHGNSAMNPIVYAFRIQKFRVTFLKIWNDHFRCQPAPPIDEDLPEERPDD
As to the kind of experiment: cell-based.

Assay [6] has as its target T2, human A1AR. As to the kind of experiment: High-content fluorescent ligand (CA200645) competition binding assay in live CHO-A1 cells. The note with it: for inhibition at 10 µM: read-out: inhibition of CA200645 binding at the A1AR; for A1 % inhibition (Table S3): top concentration of compound tested, quoted where less than 50% inhibition of total binding.
The target in assay [7] is T2, human A1AR.
The target of assay [8] is T1, human A3AR.
Setting [9] is: pKi at the adenosine A3 receptor (Table S2), mean ± s.e.m from 3 separate experiments.
Setting [10] is: A3 pKi (Table S3), mean ± s.e.m.

This note sets out measurements from PMC3456874, “Fragment Screening at Adenosine-A3 Receptors in Living Cells Using a Fluorescence-Based Binding Assay” (Chemistry & Biology, 2012).

Several values for one entry are separate records, joined by “and”; a condition that tells them apart may be missing. Identical values can stand only once. Like-named read-outs stand apart in the source and are kept apart here.

As for `CNC(=O)[C@H]1O[C@@H](n2cnc3c(NCc4cccc(I)c4)nc(Cl)nc32)[C@H](O)[C@@H]1O` [2-Cl IB-MECA], the “A3-YFP internalization / agonist action” value in assay [1] was “stimulated A3-YFP internalization”.

As for `Nc1ccc2[nH]ncc2c1` [AC 30454], the inhibition constant Ki (in general, the equilibrium dissociation constant of an inhibitor or competing ligand from its target) in assay [2] (setting [9]) was 3.16 µM. Further, the remaining binding at 1000 µM in assay [2] was found to be 13%.

As to `Cc1cc2cc(N)ccc2[nH]1` [AC 34875], the Ki in assay [2] (setting [9]) was 1.2 µM. The remaining binding at 1000 µM in assay [2] worked out at 10.4%.

With `Nc1ccc(C(F)(F)F)cc1N` [BTB 07340], in assay [2] (setting [9]), the Ki was 2.95 µM. Further, in assay [2], the remaining binding at 1000 µM is 10.3%.

In turn, `Nc1nc2ccc(Cl)cc2c2nc(-c3ccco3)nn12` [CGS 15943, reference compound] had a Ki in assay [3] of 0.00661 µM.

As for `CCNC(=O)[C@H]1O[C@@H](n2cnc3c(N)nc(NCCc4ccc(CCC(=O)O)cc4)nc32)[C@H](O)[C@@H]1O` [CGS 21680, reference compound], in assay [2] (A3AR, agonist competition curves), the “displacement of CA200645 binding” value was “only partial displacement”.

Turning to `COc1ccc(-n2nc3c(NC(=O)c4ccccc4)nc4ccccc4n3c2=O)cc1` [Compound 1], the Kb in assay [4] is 0.00166 µM. In addition, the Ki in assay [3] is 0.00309 µM; in assay [5], 1.17 µM.

Consider `COc1ccc(-n2nc3c(=O)[nH]c4ccccc4n3c2=O)cc1` [Compound 2], for which the affinity in assay [3], expressed as Ki, was 0.0776 µM.

On to `COc1ccc(NN=c2[nH]c3ccccc3[nH]c2=O)cc1` [Compound 3], for which, in assay [3], the inhibition constant (Ki) is 2.63 µM.

As for `O=C(Nc1cnc2ccccc2c1)c1ccccc1` [Compound 4], the Ki in assay [3] is above 100 µM.

Consider `Nc1cnc2ccccc2c1` [Compound 5], for which the inhibition constant Ki in assay [3] is above 10000 µM.

In assay [3], `COc1ccc(-n2ccnc2)cc1` [Compound 6] gave an inhibition constant (Ki) of 525 µM.

In assay [3], `COc1ccc(NC(C)=O)cc1` [Compound 7] had an inhibition constant Ki of 20.4 µM.

For the molecule `Nc1cccc(-c2nc3ccccc3[nH]2)c1` [Compound 8], in assay [3], the affinity, expressed as Ki, was 3.24 µM.

As for `Nc1ccc(-c2nc3ccccc3[nH]2)cc1` [Compound 9], the inhibition (commonly the change of the read-out against control, counted positive when it falls) at 100 µM in assay [2] (read-out: % inhibition of CA200645 binding at A3AR) stood at 41.2 ± 7.3%.

On to `O=C(Nc1ccccc1-c1nc2ccccc2[nH]1)c1cccnc1` [Compound 10], for which, in assay [2], the “fold increase in A3AR affinity compared to DP01095” value is recorded as 3 fold. Moreover, the Ki in assay [2] (setting [10]) was 0.0977 µM. Moreover, in assay [6], the inhibition at 10 µM was below 50% and the “A1 % inhibition (Table S3)” value is 38.9 ± 8.3%.

The molecule `O=C(Nc1ccccc1-c1nc2ccccc2[nH]1)c1ccco1` [Compound 11] gave an inhibitory constant (Ki) in assay [2] (setting [10]) of 0.166 µM. Moreover, in assay [6], the inhibition at 10 µM was below 50% and the “A1 % inhibition (Table S3)” value was 40.6 ± 7.3%.

For `O=C(Nc1ccccc1-c1nc2ccccc2[nH]1)c1cccs1` [Compound 12], the Ki in assay [2] (setting [10]) was 0.257 µM. Moreover, in assay [6], the inhibition at 10 µM was below 50% and the “A1 % inhibition (Table S3)” value is on record as 47.9 ± 9.7%.

For the molecule `Nc1ccccc1-c1nc2ccccc2[nH]1` [DP 01095], the inhibitory constant (Ki) in assay [3] is 0.363 µM and 0.331 µM. The remaining binding at 1000 µM in assay [2] amounted to 36.3%.

Take `CCCCC#Cc1nc(NC)c2ncn([C@@H]3O[C@H](CO)[C@@H](O)[C@H]3O)c2n1` [HEMADO, reference compound]: the “A3-YFP internalization / agonist action” value in assay [1] is reported as “stimulated A3-YFP internalization”. The “pIC50 for inhibition of CA200645 binding (agonists)” value in assay [2] (A3AR, n = 4) is listed as 7.23 ± 0.23.

Consider `CNC(=O)[C@H]1O[C@@H](n2cnc3c(NCc4cccc(I)c4)ncnc32)[C@H](O)[C@@H]1O` [IB-MECA], for which the “A3-YFP internalization / agonist action” value in assay [1] is “caused A3-YFP internalisztion”.

In assay [2] (setting [9]), `COC(=O)C1Cc2ccccc2N1` (centres unmarked) [MO 00997] gave a Ki of 0.794 µM. In addition, in assay [2], the remaining binding at 1000 µM is 31.1%.

On to `CCCn1c(=O)[nH]c2nc(-c3ccc(S(=O)(=O)N4CCN(c5ccc(Cl)cc5)CC4)cc3)[nH]c2c1=O` [PSB 603], for which the Ki in assay [7] was 0.0417 µM; in assay [8] it was 0.0562 µM.

Molecule `Nc1nc2c(cnn2CCc2ccccc2)c2nc(-c3ccco3)nn12` [SCH 58261, reference compound] had a Ki in assay [3] of 0.186 µM.

For the molecule `Cc1cc(N)c(N)cc1Cl` [TL 00770], in assay [2] (setting [9]), the Ki is 1 µM. The remaining binding at 1000 µM in assay [2] stood at 23.5%.

For the molecule `Nc1nc(NCCc2ccc(O)cc2)nc2nc(-c3ccco3)nn12` [ZM 241385, reference compound], in assay [4], the Kb is 0.407 µM. The molecule also showed a Ki in assay [3] of 0.182 µM.
